What was measured:
Assay in all cases: KINOMEscan
Assay type in all cases: binding
Details in all cases: 1 μM
[1] = biological target: EPHB2 (Homo sapiens, UniProt P29323)
[2] = biological target: CLK2 (Homo sapiens, UniProt P49760)
[3] = biological target: T1, ABL1(H396P)-nonphosphorylated (Homo sapiens, UniProt P00519, H396P)
T1 construct: purchased Eurofins DiscoverX Corporation

[4] = biological target: T2, JAK2(JH1domain-catalytic) (Homo sapiens, UniProt O60674)
T2 construct: JAK2(JH1domain-catalytic); purchased Eurofins DiscoverX (KINOMEscan)

[5] = biological target: T3, KIT(L576P) (Homo sapiens, UniProt P10721, L576P)
T3 construct: purchased Eurofins DiscoverX (KINOMEscan)

[6] = biological target: S6K1 (Homo sapiens, UniProt P23443)
[7] = biological target: T4, GRK7 (Homo sapiens, UniProt Q8WTQ7)
T4 construct: purchased Eurofins DiscoverX Corporation

[8] = biological target: SRPK3 (Homo sapiens, UniProt Q9UPE1)
[9] = biological target: PFTK1 (Homo sapiens, UniProt O94921)
[10] = biological target: T5, MKNK2 (Homo sapiens, UniProt Q9HBH9)
T5 construct: purchased Eurofins DiscoverX Corporation

[11] = biological target: T6, GAK (Homo sapiens, UniProt O14976)
T6 construct: purchased Eurofins DiscoverX Corporation

[12] = biological target: T7, LRRK2(G2019S) (Homo sapiens, UniProt Q5S007, G2019S)
T7 construct: purchased Eurofins DiscoverX Corporation

[13] = biological target: VEGFR2 (Homo sapiens, UniProt P35968)
[14] = biological target: T8, LATS1 (Homo sapiens, UniProt O95835)
T8 construct: purchased Eurofins DiscoverX Corporation

[15] = biological target: YANK1 (Homo sapiens, UniProt Q8WU08)
[16] = biological target: T9, STK39 (Homo sapiens, UniProt Q9UEW8)
T9 construct: purchased Eurofins DiscoverX Corporation

[17] = biological target: FGFR3 (Homo sapiens, UniProt P22607)
[18] = biological target: FGFR4 (Homo sapiens, UniProt P22455)
[19] = biological target: CDK2 (Homo sapiens, UniProt P24941)
[20] = biological target: T10, KIT(V559D) (Homo sapiens, UniProt P10721, V559D)
T10 construct: purchased Eurofins DiscoverX Corporation

[21] = biological target: AURKB (Homo sapiens, UniProt Q96GD4)
[22] = biological target: FES (Homo sapiens, UniProt P07332)
[23] = biological target: T11, TGFBR2 (Homo sapiens, UniProt P37173)
T11 construct: purchased Eurofins DiscoverX Corporation

[24] = biological target: T12, FYN (Homo sapiens, UniProt P06241)
T12 construct: purchased Eurofins DiscoverX Corporation

[25] = biological target: T13, MKNK1 (Homo sapiens, UniProt Q9BUB5)
T13 construct: purchased Eurofins DiscoverX Corporation

[26] = biological target: T14, KIT(D816V) (Homo sapiens, UniProt P10721, D816V)
T14 construct: purchased Eurofins DiscoverX (KINOMEscan)

[27] = biological target: CHEK1 (Homo sapiens, UniProt O14757)
[28] = biological target: ULK1 (Homo sapiens, UniProt O75385)
[29] = biological target: T15, CAMK1D (Homo sapiens, UniProt Q8IU85)
T15 construct: purchased Eurofins DiscoverX Corporation (KINOMEscan)

[30] = biological target: T16, MAP4K2 (Homo sapiens, UniProt Q12851)
T16 construct: purchased Eurofins DiscoverX Corporation

[31] = biological target: PRKCD (Homo sapiens, UniProt Q05655)
[32] = biological target: STK35 (Homo sapiens, UniProt Q8TDR2)
[33] = biological target: T17, GCN2(Kin.Dom.2+S808G) (Homo sapiens, UniProt Q9P2K8, S808G)
T17 construct: GCN2(Kin.Dom.2+S808G); purchased Eurofins DiscoverX Corporation

[34] = biological target: WNK1 (Homo sapiens, UniProt Q9H4A3)
[35] = biological target: EIF2AK1 (Homo sapiens, UniProt Q9BQI3)
[36] = biological target: EGFR(T790M) (Homo sapiens, UniProt P00533, T790M)
[37] = biological target: T18, ABL1(Y253F)-phosphorylated (Homo sapiens, UniProt P00519, Y253F)
T18 construct: purchased Eurofins DiscoverX Corporation

[38] = biological target: CLK1 (Homo sapiens, UniProt P49759)
[39] = biological target: PFCDPK1(P.falciparum) (Plasmodium falciparum, UniProt P62344)
[40] = biological target: EPHA5 (Homo sapiens, UniProt P54756)
[41] = biological target: EGFR(G719C) (Homo sapiens, UniProt P00533, G719C)

Sequence of PFTK1 (O94921 whole entry): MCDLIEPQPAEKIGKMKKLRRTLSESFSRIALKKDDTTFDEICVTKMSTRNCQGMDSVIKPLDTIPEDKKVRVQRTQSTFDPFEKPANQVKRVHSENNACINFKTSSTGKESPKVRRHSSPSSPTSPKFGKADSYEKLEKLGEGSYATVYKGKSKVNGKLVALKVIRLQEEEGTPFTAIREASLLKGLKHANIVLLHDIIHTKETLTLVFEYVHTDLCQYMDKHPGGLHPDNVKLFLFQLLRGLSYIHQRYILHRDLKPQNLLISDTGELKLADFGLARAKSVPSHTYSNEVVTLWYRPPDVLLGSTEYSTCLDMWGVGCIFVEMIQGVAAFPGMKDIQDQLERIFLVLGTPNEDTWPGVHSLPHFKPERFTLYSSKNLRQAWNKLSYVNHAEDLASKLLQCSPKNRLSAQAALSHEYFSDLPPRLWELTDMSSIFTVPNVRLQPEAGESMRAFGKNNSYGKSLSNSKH
T17 sequence (Q9P2K8 590-1001 S808G limits assumed): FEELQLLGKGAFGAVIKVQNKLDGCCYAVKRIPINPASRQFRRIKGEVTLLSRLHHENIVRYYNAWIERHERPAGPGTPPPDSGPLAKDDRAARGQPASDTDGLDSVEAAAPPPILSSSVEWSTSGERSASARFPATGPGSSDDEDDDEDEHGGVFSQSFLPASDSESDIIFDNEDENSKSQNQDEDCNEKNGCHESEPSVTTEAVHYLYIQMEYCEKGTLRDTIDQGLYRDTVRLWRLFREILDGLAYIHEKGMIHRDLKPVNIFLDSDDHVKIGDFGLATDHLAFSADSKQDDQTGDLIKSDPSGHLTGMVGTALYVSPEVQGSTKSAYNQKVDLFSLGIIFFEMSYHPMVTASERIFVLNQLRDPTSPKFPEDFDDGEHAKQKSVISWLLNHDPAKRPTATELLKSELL
Sequence of FGFR4 (P22455 22-802): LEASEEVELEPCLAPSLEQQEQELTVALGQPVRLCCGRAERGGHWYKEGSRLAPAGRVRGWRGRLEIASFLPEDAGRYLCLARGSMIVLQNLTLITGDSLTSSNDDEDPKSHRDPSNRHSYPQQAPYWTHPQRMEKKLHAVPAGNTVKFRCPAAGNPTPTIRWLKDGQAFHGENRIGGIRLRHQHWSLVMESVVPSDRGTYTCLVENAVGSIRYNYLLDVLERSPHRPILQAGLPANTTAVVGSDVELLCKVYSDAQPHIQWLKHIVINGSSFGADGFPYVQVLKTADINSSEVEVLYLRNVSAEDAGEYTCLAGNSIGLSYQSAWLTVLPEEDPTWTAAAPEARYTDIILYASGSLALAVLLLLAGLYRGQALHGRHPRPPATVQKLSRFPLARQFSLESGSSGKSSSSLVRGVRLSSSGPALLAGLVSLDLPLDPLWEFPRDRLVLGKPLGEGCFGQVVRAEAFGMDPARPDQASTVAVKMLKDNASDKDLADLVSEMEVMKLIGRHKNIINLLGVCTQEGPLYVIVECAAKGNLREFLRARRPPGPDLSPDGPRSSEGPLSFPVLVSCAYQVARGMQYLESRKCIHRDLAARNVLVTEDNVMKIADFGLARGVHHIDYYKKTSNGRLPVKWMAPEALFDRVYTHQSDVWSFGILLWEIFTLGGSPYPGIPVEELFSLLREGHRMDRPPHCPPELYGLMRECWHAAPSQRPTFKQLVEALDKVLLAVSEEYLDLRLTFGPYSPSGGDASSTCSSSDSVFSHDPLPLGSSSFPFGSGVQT
Sequence of EIF2AK1 (Q9BQI3 whole entry): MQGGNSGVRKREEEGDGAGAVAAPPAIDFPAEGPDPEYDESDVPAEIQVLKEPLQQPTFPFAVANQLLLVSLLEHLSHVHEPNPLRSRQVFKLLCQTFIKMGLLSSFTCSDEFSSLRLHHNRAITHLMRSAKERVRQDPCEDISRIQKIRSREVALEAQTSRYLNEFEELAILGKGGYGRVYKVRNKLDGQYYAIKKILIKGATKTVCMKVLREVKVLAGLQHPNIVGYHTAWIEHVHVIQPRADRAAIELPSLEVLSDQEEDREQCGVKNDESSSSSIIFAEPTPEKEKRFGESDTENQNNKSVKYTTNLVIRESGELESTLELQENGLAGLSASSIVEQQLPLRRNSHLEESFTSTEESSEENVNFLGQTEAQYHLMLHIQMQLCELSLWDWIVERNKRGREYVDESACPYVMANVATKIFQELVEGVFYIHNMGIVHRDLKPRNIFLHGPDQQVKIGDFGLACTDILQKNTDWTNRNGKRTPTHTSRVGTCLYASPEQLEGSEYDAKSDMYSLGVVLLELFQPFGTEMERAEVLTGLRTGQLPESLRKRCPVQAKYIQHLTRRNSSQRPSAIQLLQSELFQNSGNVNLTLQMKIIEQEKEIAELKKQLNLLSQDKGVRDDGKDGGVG
T3 sequence (P10721 26-976 L576P): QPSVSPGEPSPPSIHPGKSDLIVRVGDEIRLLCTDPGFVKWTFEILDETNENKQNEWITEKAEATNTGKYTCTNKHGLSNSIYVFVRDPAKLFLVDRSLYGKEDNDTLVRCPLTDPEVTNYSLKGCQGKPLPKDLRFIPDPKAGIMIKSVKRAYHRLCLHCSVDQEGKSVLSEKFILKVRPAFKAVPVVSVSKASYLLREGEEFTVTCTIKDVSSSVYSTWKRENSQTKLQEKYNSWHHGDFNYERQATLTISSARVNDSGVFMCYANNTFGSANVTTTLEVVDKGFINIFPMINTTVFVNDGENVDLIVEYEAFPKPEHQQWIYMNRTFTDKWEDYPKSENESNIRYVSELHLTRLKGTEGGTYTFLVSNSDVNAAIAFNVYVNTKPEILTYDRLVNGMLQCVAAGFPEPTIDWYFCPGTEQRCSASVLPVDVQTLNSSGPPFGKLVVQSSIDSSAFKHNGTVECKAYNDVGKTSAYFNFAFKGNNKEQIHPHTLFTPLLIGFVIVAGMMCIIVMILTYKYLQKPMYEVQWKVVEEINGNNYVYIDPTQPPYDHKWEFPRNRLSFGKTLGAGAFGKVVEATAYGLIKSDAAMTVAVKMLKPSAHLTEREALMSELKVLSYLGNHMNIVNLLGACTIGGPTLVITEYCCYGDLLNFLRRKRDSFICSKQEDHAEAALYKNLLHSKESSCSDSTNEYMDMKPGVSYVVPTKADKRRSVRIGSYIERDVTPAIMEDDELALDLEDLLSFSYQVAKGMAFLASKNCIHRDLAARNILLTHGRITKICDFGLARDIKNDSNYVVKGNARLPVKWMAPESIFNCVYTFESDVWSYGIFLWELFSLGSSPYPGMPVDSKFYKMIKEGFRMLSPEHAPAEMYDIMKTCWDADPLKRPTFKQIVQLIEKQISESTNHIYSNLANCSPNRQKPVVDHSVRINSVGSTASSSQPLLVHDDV
T5 sequence (Q9HBH9 whole entry): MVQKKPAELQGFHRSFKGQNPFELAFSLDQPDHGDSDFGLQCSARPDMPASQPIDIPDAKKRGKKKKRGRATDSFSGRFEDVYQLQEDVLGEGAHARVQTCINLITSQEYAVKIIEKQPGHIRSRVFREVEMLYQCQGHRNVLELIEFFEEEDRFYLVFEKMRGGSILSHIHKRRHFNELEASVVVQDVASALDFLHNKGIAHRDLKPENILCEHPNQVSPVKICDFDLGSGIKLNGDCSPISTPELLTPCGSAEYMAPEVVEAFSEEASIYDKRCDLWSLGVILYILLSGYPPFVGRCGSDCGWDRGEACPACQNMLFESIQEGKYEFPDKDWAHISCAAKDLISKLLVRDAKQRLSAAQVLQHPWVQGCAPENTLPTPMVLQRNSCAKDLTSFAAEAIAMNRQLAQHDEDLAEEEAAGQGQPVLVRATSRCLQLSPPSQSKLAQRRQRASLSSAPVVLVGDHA
T4 sequence (Q8WTQ7 whole entry): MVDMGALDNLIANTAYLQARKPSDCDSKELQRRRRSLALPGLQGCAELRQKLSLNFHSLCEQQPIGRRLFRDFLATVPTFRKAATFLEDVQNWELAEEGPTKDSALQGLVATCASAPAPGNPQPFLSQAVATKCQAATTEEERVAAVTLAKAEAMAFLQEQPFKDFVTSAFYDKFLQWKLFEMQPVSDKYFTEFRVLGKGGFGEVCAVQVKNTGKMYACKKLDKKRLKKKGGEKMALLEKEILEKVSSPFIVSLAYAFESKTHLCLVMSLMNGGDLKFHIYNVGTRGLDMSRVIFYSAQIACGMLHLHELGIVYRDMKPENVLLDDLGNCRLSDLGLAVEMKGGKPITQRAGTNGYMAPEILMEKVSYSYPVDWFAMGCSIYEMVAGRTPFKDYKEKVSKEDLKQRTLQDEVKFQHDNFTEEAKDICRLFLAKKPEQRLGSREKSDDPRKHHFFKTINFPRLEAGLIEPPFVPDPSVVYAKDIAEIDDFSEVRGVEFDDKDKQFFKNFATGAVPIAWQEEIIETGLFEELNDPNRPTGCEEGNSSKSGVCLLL
Sequence of STK35 (Q8TDR2 whole entry): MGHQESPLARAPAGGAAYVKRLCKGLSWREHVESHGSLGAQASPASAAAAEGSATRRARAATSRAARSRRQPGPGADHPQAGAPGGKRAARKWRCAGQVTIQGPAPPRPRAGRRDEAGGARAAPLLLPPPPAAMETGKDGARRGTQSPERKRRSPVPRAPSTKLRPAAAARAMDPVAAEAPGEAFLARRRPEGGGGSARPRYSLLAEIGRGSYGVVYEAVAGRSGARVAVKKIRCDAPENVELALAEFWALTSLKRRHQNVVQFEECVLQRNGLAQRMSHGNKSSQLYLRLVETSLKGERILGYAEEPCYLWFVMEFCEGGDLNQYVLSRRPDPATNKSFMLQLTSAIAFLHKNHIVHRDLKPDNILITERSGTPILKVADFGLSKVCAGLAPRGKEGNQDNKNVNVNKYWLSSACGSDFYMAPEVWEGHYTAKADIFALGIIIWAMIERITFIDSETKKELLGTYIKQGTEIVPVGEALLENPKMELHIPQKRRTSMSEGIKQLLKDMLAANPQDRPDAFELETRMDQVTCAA
T10 sequence (P10721 26-976 V559D): as the sequence (P10721 26-976 L576P) above, with V534D, P551L counted along it
T14 sequence (P10721 26-976 D816V): as the sequence (P10721 26-976 L576P) above, with P551L, D791V counted along it

## C=CC(=O)Nc1ccc(OC)c(Nc2cc(-c3[nH]c(CC)nc3-c3cccc(NC(=O)c4cccc5c4NC(=O)c4ccccc4N5)c3)ccn2)c1 [Compound 4]
[1]
  POC: 100% of control
[2]
  POC: 63% of control
[3]
  POC: 97% of control
[4]
  POC: 86% of control
[5]
  POC: 84% of control
[6]
  POC: 100% of control
[7]
  POC: 99% of control
[8]
  POC: 100% of control
[9]
  POC: 90% of control
[10]
  POC: 100% of control
[11]
  POC: 16% of control
[12]
  POC: 100% of control
[13]
  POC: 100% of control
[14]
  POC: 100% of control
[15]
  POC: 84% of control
[16]
  POC: 85% of control
[17]
  POC: 94% of control
[18]
  POC: 100% of control
[19]
  POC: 95% of control
[20]
  POC: 100% of control
[21]
  POC: 100% of control
[22]
  POC: 28% of control
[23]
  POC: 75% of control
[24]
  POC: 64% of control
[25]
  POC: 100% of control
[26]
  POC: 94% of control
[27]
  POC: 100% of control
[28]
  POC: 100% of control
[29]
  POC: 100% of control
[30]
  POC: 36% of control
[31]
  POC: 55% of control
[32]
  POC: 69% of control
[33]
  POC: 100% of control
[34]
  POC: 100% of control
[35]
  POC: 75% of control
[36]
  POC: 12% of control
[37]
  POC: 72% of control
[38]
  POC: 100% of control
[39]
  POC: 87% of control
[40]
  POC: 100% of control
[41]
  POC: 6.5% of control

Source: article PMC10879502, “Linking ATP and allosteric sites to achieve superadditive binding with bivalent EGFR kinase inhibitors” (Communications Chemistry, 2024)
